Tests used:
[1] = test system: spontaneously hypertensive rats (SHR) of the Okamoto strain; test: Antihypertensive effect in conscious, unrestrained spontaneously hypertensive rats, oral cumulative dosing; assay type: in vivo; details: Rattus norvegicus; dose giving 20 per cent reduction of mean arterial BP, by interpolation; oral intubation in methocel, cumulated doses 1, 5 and 25 µmoles/kg at 2 hour intervals
Experimental: The antihypertensive effect of the compounds was tested in conscious, unrestrained spontaneously hypertensive rats (SHR) of the Okamoto strain. The animals had been prepared by prior implantation of indwelling catheters in the abdominal aorta via the femoral artery. Mean arterial blood pressure (MABP) and heart rate were continuously monitored. After a 2 hour control period the compound under study was administered by oral intubation at 2 hour intervals, suspended in methocel solution (5 ml/kg bodyweight). The cumulated doses were 1, 5 and 25)jmoles/kg bodyweight. The antihypertensive response, i.e. the BP'reduction to each dose, was expressed as a percentage of the initial control BP level and plotted against the dose on a logarithmic scale. The dose which would give 20 per cent BP reduction was then determined by interpolation.

[2] = test system: isolated portal vein preparation / paced isolated papillary heart muscle preparation; test: Specificity towards smooth muscle relaxation: isolated portal vein versus paced papillary heart muscle in an organ bath; parameters: species or system Wistar rats; details: separation value: averaged difference of -log ED50 portal vein (vasodilatation) and -log ED50 papillary muscle (myocardial depression), transformed into numeric format
Experimental: The specificity towards smooth muscle relaxation was examined as follows: The isolated portal vein preparation of Wistar rats was mounted in an organ bath together with a paced isolated papillary heart muscle preparation of the same animal. The integrated contractile activity of the portal vein smooth muscle and the peak force amplitude of the papillary, myocardial, preparation were recorded. The respective activities during a 30 min control period were set as 100 per cent and the ensuing activities under the influence of an agent under study were expressed as a percentage thereof. The agent was administered at 10 min intervals and the potency for vasodilatation (-log ED50 of portal vein) and that of myocardial depression (-log ED50 of ^pa^pill- ary muscle) were determined by interpolation from the concentration-effect relationships determined in each experiment. A "separation" value was determined for each compound by averaging the differences of the -log ED50 values for vasodilatation and myocardial depression, respectively, ogtained in the experiments. This logarithmic separation value was transformed into numeric format and entered into table 2.

| SMILES | ED20 [1] | Ratio heart vasc. [2] |
| --- | --- | --- |
| COC(=O)C1=C(C)NC(C)=C(C(=O)OCCSCCN(C)C)C1c1cccc([N+](=O)[O-])c1 (stereo not drawn) [Compound 1, 2,6-dimethyl-4-(3-nitrophenyl)-1,4-dihydropyridine-3,5--dicarboxylic acid-3-[2-(N,N-dimethylaminoethylthio)ethyl]--5-methyl ester] | 16 µmol/kg | 30 |
| COC(=O)C1=C(C)NC(C)=C(C(=O)OCCSCCN(C)C)C1c1ccccc1[N+](=O)[O-] (stereo not drawn) [Compound 2, 2,6-dimethyl-4-(2-nitrophenyl)-1,4-dihydropyridine-3,5--dicarboxylic acid-3-[2-(2-N,N-dimethylaminoethylthio)ethyl]--5-methyl ester] | 30 µmol/kg | 5 |
| COC(=O)C1=C(C)NC(C)=C(C(=O)OCCSCCN(C)C)C1c1cccc(C#N)c1 (stereo not drawn) [Compound 3, 2,6-dimethyl-4-(3-cyanophenyl)-1,4-dihydropyridine-3,5--dicarboxylic acid-3-[2-(2-N,N-dimethylaminoethylthio)ethyl)--5-methyl ester] | 50 µmol/kg | 18 |
| COC(=O)C1=C(C)NC(C)=C(C(=O)OCCSCCN(C)C)C1c1cccc(Cl)c1Cl (stereo not drawn) [Compound 4, 2,6-dimethyl-4-(2,3-dichlorophenyl)-1,4-dihydropyridine-3,5-dicarboxylic acid-3-[2-(2-N,N-dimethyl-aminoethylthio)ethyl]-5-methyl ester] | 19 µmol/kg | 3 |
| CC1=C(C(=O)OCCSCCN(C)C)C(c2cccc(Cl)c2Cl)C(C(=O)OC(C)C)=C(C)N1 (stereo not drawn) [Compound 5, 2,6-dimethyl-4-(2,3-dichlorophenyl)-1,4-dihydropyridine--3,5-dicarboxylic acid-3-[2-(2-N,N-dimethylaminoethylthio)-ethyl)-5-(2-methylethyl)ester] | 20 µmol/kg | 19 |
| CCOC(=O)C1=C(C)NC(C)=C(C(=O)OCCSCCN(C)C)C1c1cccc(Cl)c1Cl (stereo not drawn) [Compound 6, 2,6-dimethyl-4-(2,3-dichlorophenyl]-1,4-dihydropyridine--3,5-dicarboxylic acid-3-[2-(2-N,N-dimethylaminoethylthio)-ethyl]-5-ethyl ester] | 25 µmol/kg | 16 |
| COCCOC(=O)C1=C(C)NC(C)=C(C(=O)OCCSCCN(C)C)C1c1cccc(Cl)c1Cl (stereo not drawn) [Compound 7, 2,6-dimethyl-4-(2,3-dichlorophenyl)-1,4-dihydropyridine--3,5-dicarboxylic acid-3-[2-(2-N,N-dimethylaminoetylthio-ethyl]-5-12-methoxyethyl) ester] | 56 µmol/kg | 20 |
| CCN(CC)CCSCCOC(=O)C1=C(C)NC(C)=C(C(=O)OC)C1c1cccc(Cl)c1Cl (stereo not drawn) [Compound 8] | 6 µmol/kg | 4 |
| COC(=O)C1=C(C)NC(C)=C(C(=O)OCCSCCN2CCOCC2)C1c1cccc(Cl)c1Cl (stereo not drawn) [Compound 9, 2,6-dimethyl-4-(2,3-dichlorophenyl)-1,4-dihydropyridine--3,5-dicarboxylic acid-3-[2-(2-morpholinoethylthio)-ethyl]--5-methyl ester] | 5 µmol/kg | 27 |
| COC(=O)C1=C(C)NC(C)=C(C(=O)OCCSCCN(Cc2ccccc2)C(C)C)C1c1cccc(Cl)c1Cl (stereo not drawn) [Compound 10] | 9 µmol/kg | 22 |
| COC(=O)C1=C(C)NC(C)=C(C(=O)OCCSCCCN(C)C)C1c1cccc(Cl)c1Cl (stereo not drawn) [Compound 11, 2,6-dimethyl-4-(2,3-dichlorophenyl)-1,4-dihydropyridine--3,5-dicarboxylic acid-3-[2-(3-N,N-dimethylaminopropylthio)-ethyl]-5-methyl ester] |  | 3 |
| COCCOC(=O)C1=C(C)NC(C)=C(C(=O)OCCSCCN(Cc2ccccc2)C(C)C)C1c1cccc(Cl)c1Cl (stereo not drawn) [Compound 12, 2,6-dimethyl-4-(2,3-dichlorophenyl)-1,4-dihydropyridine--3,5-dicarboxylic acid-3-[2-(2-N-isopropyl-N-benzylethyl-thio)ethyl]-5-(2-methoxyethyl) ester] | 26 µmol/kg | 50 |
| COCCOC(=O)C1=C(C)NC(C)=C(C(=O)OCCSCCN2CCOCC2)C1c1cccc(Cl)c1Cl (stereo not drawn) [Compound 13, 2,6-dimethyl-4-(2,3-dichlorophenyl)-1,4-dihydropyridine-3,5-dicarboxylic acid-3-[2-(2-morpholinoethyl-thio)ethyl]-5-(2-methoxethyl) ester] | 15 µmol/kg | 70 |
| COC(=O)C1=C(C)NC(C)=C(C(=O)OC)C1c1ccccc1[N+](=O)[O-] [Nifedipine, 2,6-dimethyl-4-(2-nitrophenyl)-1,4-dihydropyridine-3,5-dicarboxylic acid-3,5-dimethylester, reference compound] | 5 µmol/kg | 15 |

From patent publication EP0095451A2, “Novel dihydropyridines” (priority 1982, dated 1983)
